From ChEMBL document CHEMBL3232710, “Pyrroloquinolinone-based dual topoisomerase I/II inhibitor” (2014)
The source made the active and inactive calls. No cut-off for these calls is given here.

Columns and labels:
A-431 = test: Growth inhibition of human A431 cells after 72 hrs by trypan blue assay; assay type: functional; settings: A-431, 72 h
[1] = molecular target: DNA topoisomerase 2-alpha (Homo sapiens) (UniProt P11388); test: Inhibition of human recombinant topoisomerase 2-alpha-mediated pBR322 DNA relaxation at 20 uM after 60 mins by agarose gel electrophoresis
HL-60 = test: Growth inhibition of human HL60 cells after 72 hrs by trypan blue assay; assay type: functional; settings: HL-60, 72 h
Nucleic Acid = test: Binding affinity to salmon testes DNA assessed as intercalation at compound to DNA ratio of 0.04 by linear dichroism analysis; assay type: nucleic-acid assay; settings: Salmonidae
[2] = molecular target: DNA topoisomerase 2-alpha (Homo sapiens) (UniProt P11388); test: Inhibition of human recombinant topoisomerase 2-alpha-mediated pBR322 DNA relaxation at 50 uM after 60 mins by agarose gel electrophoresis
HeLa [3] = test: Growth inhibition of human HeLa cells after 72 hrs by trypan blue assay; assay type: functional
Bos taurus = species on record: Bos taurus; test: Inhibition of calf thymus topoisomerase-1-mediated pBR322 DNA relaxation after 60 mins by agarose gel electrophoresis
[4] = molecular target: DNA topoisomerase 2-alpha (Homo sapiens) (UniProt P11388); test: Inhibition of human recombinant topoisomerase 2-alpha-mediated pBR322 DNA cleavage at 100 uM after 60 mins by agarose gel electrophoresis
HeLa [5] = test: Induction of apoptosis in human HeLa cells assessed as DNA fragmentation at 100 uM after 24 hrs by agarose gel electrophoresis; assay type: functional, cell-based

DNA topoisomerase 2-alpha (Homo sapiens), sequence (P11388 whole entry, the tested form may be a part): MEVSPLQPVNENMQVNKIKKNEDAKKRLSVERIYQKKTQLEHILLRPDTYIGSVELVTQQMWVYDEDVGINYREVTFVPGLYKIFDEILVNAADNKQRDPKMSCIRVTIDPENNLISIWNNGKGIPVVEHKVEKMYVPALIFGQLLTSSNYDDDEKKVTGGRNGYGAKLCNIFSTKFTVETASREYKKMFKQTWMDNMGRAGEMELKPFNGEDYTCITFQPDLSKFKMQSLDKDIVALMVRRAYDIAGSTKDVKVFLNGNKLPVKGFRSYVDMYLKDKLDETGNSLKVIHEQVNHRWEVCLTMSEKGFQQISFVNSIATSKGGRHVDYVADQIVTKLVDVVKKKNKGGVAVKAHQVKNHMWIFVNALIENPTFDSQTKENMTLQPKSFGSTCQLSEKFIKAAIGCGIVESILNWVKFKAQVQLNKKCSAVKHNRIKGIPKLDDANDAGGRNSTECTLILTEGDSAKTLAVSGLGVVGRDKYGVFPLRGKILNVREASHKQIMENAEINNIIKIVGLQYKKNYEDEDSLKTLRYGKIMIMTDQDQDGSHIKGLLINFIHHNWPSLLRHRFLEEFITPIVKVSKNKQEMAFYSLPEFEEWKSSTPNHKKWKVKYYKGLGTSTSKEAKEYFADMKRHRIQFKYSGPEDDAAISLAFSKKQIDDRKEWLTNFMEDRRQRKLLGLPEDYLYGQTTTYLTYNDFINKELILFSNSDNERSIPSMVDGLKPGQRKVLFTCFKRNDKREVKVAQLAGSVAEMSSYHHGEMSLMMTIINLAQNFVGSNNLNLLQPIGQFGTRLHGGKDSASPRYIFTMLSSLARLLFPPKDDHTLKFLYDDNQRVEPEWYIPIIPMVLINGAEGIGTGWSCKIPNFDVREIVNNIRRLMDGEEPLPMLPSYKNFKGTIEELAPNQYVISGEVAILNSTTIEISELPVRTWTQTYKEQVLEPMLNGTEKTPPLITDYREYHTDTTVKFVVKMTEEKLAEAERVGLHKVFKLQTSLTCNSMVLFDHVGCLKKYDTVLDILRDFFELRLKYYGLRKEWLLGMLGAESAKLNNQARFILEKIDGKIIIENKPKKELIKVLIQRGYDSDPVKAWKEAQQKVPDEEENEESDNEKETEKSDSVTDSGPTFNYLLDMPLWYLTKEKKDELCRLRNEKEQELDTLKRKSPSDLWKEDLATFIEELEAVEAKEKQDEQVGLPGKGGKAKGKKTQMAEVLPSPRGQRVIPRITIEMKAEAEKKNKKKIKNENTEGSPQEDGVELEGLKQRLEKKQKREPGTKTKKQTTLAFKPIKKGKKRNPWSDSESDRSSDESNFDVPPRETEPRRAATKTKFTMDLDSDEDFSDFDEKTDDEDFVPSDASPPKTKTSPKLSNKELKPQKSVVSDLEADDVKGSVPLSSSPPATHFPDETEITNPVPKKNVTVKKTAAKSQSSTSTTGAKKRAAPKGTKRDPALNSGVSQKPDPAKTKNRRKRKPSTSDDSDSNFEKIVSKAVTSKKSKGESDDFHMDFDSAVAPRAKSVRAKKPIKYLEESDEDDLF

Compound	GI50 (A-431)	inhibition [1]	GI50 (HL-60)	Activity (Nucleic Acid)	inhibition [2]	GI50 (HeLa [3])	inhibition (Bos taurus)	inhibition [4]	Activity (HeLa [5])
Cc1cc(=O)n2c(C)cc3c(OCCCNCCN(C)C)ccc1c32	14.5 µM		> 50 µM	Active	inactive				
Cc1c2ccncc2c(C)c2c1[nH]c1ccccc12 [ELLIPTECINE]	3.2 µM		2 µM			0.3 µM			
Cc1cc(=O)n2c(C)cc3c(OCCCCNCCN(C)C)ccc1c32	13.6 µM	inactive	8.3 µM	Active	Active	19.7 µM	Dose-dependent effect	Active	Active

More lines, in order of falling GI50 (A-431), values ahead:

GI50 (A-431)	inhibition [1]	GI50 (HL-60)	Activity (Nucleic Acid)	inhibition [2]	GI50 (HeLa [3])	inhibition (Bos taurus)	inhibition [4]	Compound	Activity (HeLa [5])
41.3 µM	inactive	> 50 µM	Active	inactive	> 50 µM			Cc1cc(=O)n2c(C)cc3c(OCCCCN(C)C)ccc1c32	
7.5 µM		25.7 µM	Active	Active	> 50 µM			Cc1cc(=O)n2c(C)cc3c(OCCNCCN(C)C)ccc1c32	
